# In patent US6914045B2, “Glycopeptide antibiotics” (Wyeth Holdings Corporation, priority 2001, dated 2005):
# Experiments:
# Test in all cases: in vitro antibacterial evaluation, MIC by broth dilution
# Assay type in all cases: cell-based
# Escherichia coli = conditions: 18 hours at 35° C.
# Streptococcus sp. = conditions: broth dilution, 18 hours at 35° C.
# Procedure, shortened: (§1)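 MIC, the lowest antibiotic concentration preventing growth, was read across 64-0.06 μg/mL with 5×10^5 CFU/mL inoculum. Method followed NCCLS M7-A2 broth dilution using Mueller-Hinton II; Gram-positive strains covered recent methicillin-, penicillin- and/or vancomycin-resistant clinical isolates.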
# Enterococcus sp. = conditions: broth dilution, 18 hours at 35° C.
# Procedure, shortened: as §1
# Staphylococcus sp. = conditions: broth dilution, 18 hours at 35° C.
# Procedure, shortened: as §1
# [1] = inoculum 5×10^5 CFU/mL, strain ATCC 6301
# [2] = inoculum 5×10^5 CFU/mL, strain GC 1894
# [3] = inoculum 5×10^5 CFU/mL, strain GC 4563
# [4] = inoculum 5×10^5 CFU/mL, strain GC 4564
# [5] = inoculum 5×10^5 CFU/mL, strain GC 4565
# [6] = inoculum 5×10^5 CFU/mL, strain GC 2242
# [7] = inoculum 5×10^5 CFU/mL, strain GC 2691
# [8] = inoculum 5×10^5 CFU/mL, strain GC 3059
structure (smiles),measurement,setting,value
CC(c1ccccc1)C1NC(=O)CNC(=O)C(CO)NC(=O)C(C(O)C2CNC(=N)N2C2OC(CO)C(O)C(O)C2O)NC(=O)C(C(O)C2CNC(=N)N2)NC(=O)C(Cc2ccc(OC3OC(CO)C(OC4OC(COCC=Cc5ccc(N(C)C)cc5)C(O)C(O)C4O)C(O)C3O)cc2)NC1=O (centres unmarked) [Example 243],MIC Escherichia coli (ATCC 25922),Escherichia coli,>64 µg/mL
same,MIC Escherichia coli (GC 4559),Escherichia coli,>64 µg/mL
same,MIC Escherichia coli (GC 4560),Escherichia coli,64 µg/mL
same,MIC Streptococcus agalactiae (GC 4564),Streptococcus sp.,32 µg/mL
same,MIC Streptococcus pneumoniae (ATCC 6301),Streptococcus sp.,32 µg/mL
same,MIC Streptococcus pneumoniae (GC 1894),Streptococcus sp.,8 µg/mL
same,MIC Streptococcus pneumoniae (GC 4565),Streptococcus sp.,16 µg/mL
same,MIC Streptococcus pyogenes (GC 4563),Streptococcus sp.,32 µg/mL
same,MIC Streptococcus pneumoniae (ATCC 6301),Streptococcus sp.; [1],32 µg/mL
same,MIC Streptococcus pneumoniae (GC 1894),Streptococcus sp.; [2],8 µg/mL
same,MIC Streptococcus pyogenes (GC 4563),Streptococcus sp.; [3],32 µg/mL
same,MIC Streptococcus agalactiae (GC 4564),Streptococcus sp.; [4],32 µg/mL
same,MIC Streptococcus pneumoniae (GC 4565),Streptococcus sp.; [5],16 µg/mL
same,MIC Enterococcus avium (GC 4558),Enterococcus sp.,32 µg/mL
same,MIC Enterococcus faecalis (ATCC 29212),Enterococcus sp.,>64 µg/mL
same,MIC Enterococcus faecalis (GC 2242),Enterococcus sp.,64 µg/mL
same,MIC Enterococcus faecalis (GC 2691),Enterococcus sp.,>64 µg/mL
same,MIC Enterococcus faecalis (GC 3059),Enterococcus sp.,>64 µg/mL
same,MIC Enterococcus faecalis (GC 4552),Enterococcus sp.,>64 µg/mL
same,MIC Enterococcus faecalis (GC 4553),Enterococcus sp.,64 µg/mL
same,MIC Enterococcus faecalis (GC 4554),Enterococcus sp.,>64 µg/mL
same,MIC Enterococcus faecalis (GC 6189),Enterococcus sp.,64 µg/mL
same,MIC Enterococcus faecium (GC 2243),Enterococcus sp.,64 µg/mL
same,MIC Enterococcus faecium (GC 4556),Enterococcus sp.,>64 µg/mL
same,MIC Enterococcus faecium (GC 4557),Enterococcus sp.,32 µg/mL
same,MIC Enterococcus faecalis (ATCC 29212),Enterococcus sp.; strain ATCC 29212,>64 µg/mL
same,MIC Enterococcus faecium (GC 2243),Enterococcus sp.; strain GC 2243,64 µg/mL
same,MIC Enterococcus faecalis (GC 4552),Enterococcus sp.; strain GC 4552,>64 µg/mL
same,MIC Enterococcus faecalis (GC 4553),Enterococcus sp.; strain GC 4553,64 µg/mL
same,MIC Enterococcus faecalis (GC 4554),Enterococcus sp.; strain GC 4554,>64 µg/mL
same,MIC Enterococcus faecium (GC 4556),Enterococcus sp.; strain GC 4556,>64 µg/mL
same,MIC Enterococcus faecium (GC 4557),Enterococcus sp.; strain GC 4557,32 µg/mL
same,MIC Enterococcus avium (GC 4558),Enterococcus sp.; strain GC 4558,32 µg/mL
same,MIC Enterococcus faecalis (GC 6189),Enterococcus sp.; strain GC 6189,64 µg/mL
same,MIC Enterococcus faecalis (GC 2242),Enterococcus sp.; [6],64 µg/mL
same,MIC Enterococcus faecalis (GC 2691),Enterococcus sp.; [7],>64 µg/mL
same,MIC Enterococcus faecalis (GC 3059),Enterococcus sp.; [8],>64 µg/mL
same,MIC Coagulase Negative Staphylococcus (GC 4547),Staphylococcus sp.,64 µg/mL
same,MIC Coagulase Negative Staphylococcus (GC 4548),Staphylococcus sp.,32 µg/mL
same,MIC Coagulase Negative Staphylococcus (GC 4549),Staphylococcus sp.,32 µg/mL
same,MIC Coagulase Negative Staphylococcus (GC 4551),Staphylococcus sp.,64 µg/mL
same,MIC Coagulase Negative Staphylococcus (GC 6257),Staphylococcus sp.,32 µg/mL
same,MIC Staphylococcus aureus (ATCC 29213),Staphylococcus sp.,64 µg/mL
same,MIC Staphylococcus aureus (GC 1131),Staphylococcus sp.,64 µg/mL
same,MIC Staphylococcus aureus (GC 3051),Staphylococcus sp.,64 µg/mL
same,MIC Staphylococcus aureus (GC 3053),Staphylococcus sp.,64 µg/mL
same,MIC Staphylococcus aureus (GC 4541),Staphylococcus sp.,64 µg/mL
same,MIC Staphylococcus aureus (GC 4542),Staphylococcus sp.,64 µg/mL
same,MIC Staphylococcus aureus (GC 4544),Staphylococcus sp.,64 µg/mL
same,MIC Staphylococcus aureus (GC 4545),Staphylococcus sp.,64 µg/mL
same,MIC Staphylococcus aureus-SMITH (GC 4543),Staphylococcus sp.,64 µg/mL
same,MIC Staphylococcus haemolyticus (GC 4546),Staphylococcus sp.,64 µg/mL
same,MIC Staphylococcus aureus (ATCC 29213),Staphylococcus sp.; strain ATCC 29213,64 µg/mL
same,MIC Staphylococcus aureus (GC 1131),Staphylococcus sp.; strain GC 1131,64 µg/mL
same,MIC Staphylococcus aureus (GC 3051),Staphylococcus sp.; strain GC 3051,64 µg/mL
same,MIC Staphylococcus aureus (GC 3053),Staphylococcus sp.; strain GC 3053,64 µg/mL
same,MIC Staphylococcus aureus (GC 4541),Staphylococcus sp.; strain GC 4541,64 µg/mL
same,MIC Staphylococcus aureus (GC 4542),Staphylococcus sp.; strain GC 4542,64 µg/mL
same,MIC Staphylococcus aureus-SMITH (GC 4543),Staphylococcus sp.; strain GC 4543,64 µg/mL
same,MIC Staphylococcus aureus (GC 4544),Staphylococcus sp.; strain GC 4544,64 µg/mL
same,MIC Staphylococcus aureus (GC 4545),Staphylococcus sp.; strain GC 4545,64 µg/mL
same,MIC Staphylococcus haemolyticus (GC 4546),Staphylococcus sp.; strain GC 4546,64 µg/mL
same,MIC Coagulase Negative Staphylococcus (GC 4547),Staphylococcus sp.; strain GC 4547,64 µg/mL
same,MIC Coagulase Negative Staphylococcus (GC 4548),Staphylococcus sp.; strain GC 4548,32 µg/mL
same,MIC Coagulase Negative Staphylococcus (GC 4549),Staphylococcus sp.; strain GC 4549,32 µg/mL
same,MIC Coagulase Negative Staphylococcus (GC 4551),Staphylococcus sp.; strain GC 4551,64 µg/mL
same,MIC Coagulase Negative Staphylococcus (GC 6257),Staphylococcus sp.; strain GC 6257,32 µg/mL
Cc1ccc(COCC2OC(OC3C(CO)OC(Oc4ccc(CC5NC(=O)C(C(C)c6ccccc6)NC(=O)CNC(=O)C(CO)NC(=O)C(C(O)C6CNC(=N)N6C6OC(CO)C(O)C(O)C6O)NC(=O)C(C(O)C6CNC(=N)N6)NC5=O)cc4)C(O)C3O)C(O)C(O)C2O)cc1 (centres unmarked) [Example 234],MIC Escherichia coli (ATCC 25922),Escherichia coli,64 µg/mL
same,MIC Escherichia coli (GC 4559),Escherichia coli,64 µg/mL
same,MIC Escherichia coli (GC 4560),Escherichia coli,1 µg/mL
same,MIC Streptococcus agalactiae (GC 4564),Streptococcus sp.,0.5 µg/mL
same,MIC Streptococcus pneumoniae (ATCC 6301),Streptococcus sp.,0.25 µg/mL
same,MIC Streptococcus pneumoniae (GC 1894),Streptococcus sp.,0.12 µg/mL
same,MIC Streptococcus pneumoniae (GC 4565),Streptococcus sp.,0.25 µg/mL
same,MIC Streptococcus pyogenes (GC 4563),Streptococcus sp.,0.5 µg/mL
same,MIC Streptococcus pneumoniae (ATCC 6301),Streptococcus sp.; [1],0.25 µg/mL
same,MIC Streptococcus pneumoniae (GC 1894),Streptococcus sp.; [2],0.12 µg/mL
same,MIC Streptococcus pyogenes (GC 4563),Streptococcus sp.; [3],0.5 µg/mL
same,MIC Streptococcus agalactiae (GC 4564),Streptococcus sp.; [4],0.5 µg/mL
same,MIC Streptococcus pneumoniae (GC 4565),Streptococcus sp.; [5],0.25 µg/mL
same,MIC Enterococcus avium (GC 4558),Enterococcus sp.,8 µg/mL
same,MIC Enterococcus faecalis (ATCC 29212),Enterococcus sp.,8 µg/mL
same,MIC Enterococcus faecalis (GC 2242),Enterococcus sp.,4 µg/mL
same,MIC Enterococcus faecalis (GC 2691),Enterococcus sp.,8 µg/mL
same,MIC Enterococcus faecalis (GC 3059),Enterococcus sp.,8 µg/mL
same,MIC Enterococcus faecalis (GC 4552),Enterococcus sp.,8 µg/mL
same,MIC Enterococcus faecalis (GC 4553),Enterococcus sp.,8 µg/mL
same,MIC Enterococcus faecalis (GC 4554),Enterococcus sp.,8 µg/mL
same,MIC Enterococcus faecalis (GC 6189),Enterococcus sp.,8 µg/mL
same,MIC Enterococcus faecium (GC 2243),Enterococcus sp.,8 µg/mL
same,MIC Enterococcus faecium (GC 4556),Enterococcus sp.,8 µg/mL
same,MIC Enterococcus faecium (GC 4557),Enterococcus sp.,2 µg/mL
same,MIC Enterococcus faecalis (ATCC 29212),Enterococcus sp.; strain ATCC 29212,8 µg/mL
same,MIC Enterococcus faecium (GC 2243),Enterococcus sp.; strain GC 2243,8 µg/mL
same,MIC Enterococcus faecalis (GC 4552),Enterococcus sp.; strain GC 4552,8 µg/mL
same,MIC Enterococcus faecalis (GC 4553),Enterococcus sp.; strain GC 4553,8 µg/mL
same,MIC Enterococcus faecalis (GC 4554),Enterococcus sp.; strain GC 4554,8 µg/mL
same,MIC Enterococcus faecium (GC 4556),Enterococcus sp.; strain GC 4556,8 µg/mL
same,MIC Enterococcus faecium (GC 4557),Enterococcus sp.; strain GC 4557,2 µg/mL
same,MIC Enterococcus avium (GC 4558),Enterococcus sp.; strain GC 4558,8 µg/mL
same,MIC Enterococcus faecalis (GC 6189),Enterococcus sp.; strain GC 6189,8 µg/mL
same,MIC Enterococcus faecalis (GC 2242),Enterococcus sp.; [6],4 µg/mL
same,MIC Enterococcus faecalis (GC 2691),Enterococcus sp.; [7],8 µg/mL
same,MIC Enterococcus faecalis (GC 3059),Enterococcus sp.; [8],8 µg/mL
same,MIC Coagulase Negative Staphylococcus (GC 4547),Staphylococcus sp.,1 µg/mL
same,MIC Coagulase Negative Staphylococcus (GC 4548),Staphylococcus sp.,1 µg/mL
same,MIC Coagulase Negative Staphylococcus (GC 4549),Staphylococcus sp.,0.5 µg/mL
same,MIC Coagulase Negative Staphylococcus (GC 4551),Staphylococcus sp.,2 µg/mL
same,MIC Coagulase Negative Staphylococcus (GC 6257),Staphylococcus sp.,1 µg/mL
same,MIC Staphylococcus aureus (ATCC 29213),Staphylococcus sp.,2 µg/mL
same,MIC Staphylococcus aureus (GC 1131),Staphylococcus sp.,2 µg/mL
same,MIC Staphylococcus aureus (GC 3051),Staphylococcus sp.,2 µg/mL
same,MIC Staphylococcus aureus (GC 3053),Staphylococcus sp.,2 µg/mL
same,MIC Staphylococcus aureus (GC 4541),Staphylococcus sp.,2 µg/mL
same,MIC Staphylococcus aureus (GC 4542),Staphylococcus sp.,2 µg/mL
same,MIC Staphylococcus aureus (GC 4544),Staphylococcus sp.,2 µg/mL
same,MIC Staphylococcus aureus (GC 4545),Staphylococcus sp.,2 µg/mL
same,MIC Staphylococcus aureus-SMITH (GC 4543),Staphylococcus sp.,2 µg/mL
same,MIC Staphylococcus haemolyticus (GC 4546),Staphylococcus sp.,1 µg/mL
same,MIC Staphylococcus aureus (ATCC 29213),Staphylococcus sp.; strain ATCC 29213,2 µg/mL
same,MIC Staphylococcus aureus (GC 1131),Staphylococcus sp.; strain GC 1131,2 µg/mL
same,MIC Staphylococcus aureus (GC 3051),Staphylococcus sp.; strain GC 3051,2 µg/mL
same,MIC Staphylococcus aureus (GC 3053),Staphylococcus sp.; strain GC 3053,2 µg/mL
same,MIC Staphylococcus aureus (GC 4541),Staphylococcus sp.; strain GC 4541,2 µg/mL
same,MIC Staphylococcus aureus (GC 4542),Staphylococcus sp.; strain GC 4542,2 µg/mL
same,MIC Staphylococcus aureus-SMITH (GC 4543),Staphylococcus sp.; strain GC 4543,2 µg/mL
same,MIC Staphylococcus aureus (GC 4544),Staphylococcus sp.; strain GC 4544,2 µg/mL
same,MIC Staphylococcus aureus (GC 4545),Staphylococcus sp.; strain GC 4545,2 µg/mL
same,MIC Staphylococcus haemolyticus (GC 4546),Staphylococcus sp.; strain GC 4546,1 µg/mL
same,MIC Coagulase Negative Staphylococcus (GC 4547),Staphylococcus sp.; strain GC 4547,1 µg/mL
same,MIC Coagulase Negative Staphylococcus (GC 4548),Staphylococcus sp.; strain GC 4548,1 µg/mL
same,MIC Coagulase Negative Staphylococcus (GC 4549),Staphylococcus sp.; strain GC 4549,0.5 µg/mL
same,MIC Coagulase Negative Staphylococcus (GC 4551),Staphylococcus sp.; strain GC 4551,2 µg/mL
same,MIC Coagulase Negative Staphylococcus (GC 6257),Staphylococcus sp.; strain GC 6257,1 µg/mL
